Reference: PubChem BioAssay AID2060898 (Molecular Pharmacology Branch, DTP, NCI, 2025)

Test system: 616215-338-R-J1-PDC complex spheroid viability
Experiment: Anticancer human tumor 616215-338-R-J1-PDC patient-derived colon adenocarcinoma cell line growth inhibition [RAS]
Conditions: for IC50: curve of first compound; for viability, T/C: stronger effect = lower value
Summary of the method: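 Agents were tested in combination matrices in half-log decrements from a top concentration at or near clinical Cmax (10 microM if undetermined). Targets were multi-cell spheroids of tumour lines plus HUVEC and MSC stromal cells.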

[1] = second compound 0.000949 µM, first compound 0.0316 µM
[2] = second compound 0.000949 µM, first compound 0.1 µM
[3] = second compound 0.000949 µM, first compound 0.316 µM
[4] = second compound 0.000949 µM, first compound 1 µM
[5] = second compound 0.000949 µM, first compound 3.16 µM
[6] = second compound 0.000949 µM, first compound 10 µM
[7] = second compound 0.003 µM, first compound 0.0316 µM
[8] = second compound 0.003 µM, first compound 0.1 µM
[9] = second compound 0.003 µM, first compound 0.316 µM
[10] = second compound 0.003 µM, first compound 1 µM
[11] = second compound 0.003 µM, first compound 3.16 µM
[12] = second compound 0.003 µM, first compound 10 µM
[13] = second compound 0.00949 µM, first compound 0.0316 µM
[14] = second compound 0.00949 µM, first compound 0.1 µM
[15] = second compound 0.00949 µM, first compound 0.316 µM
[16] = second compound 0.00949 µM, first compound 1 µM
[17] = second compound 0.00949 µM, first compound 3.16 µM
[18] = second compound 0.00949 µM, first compound 10 µM
[19] = second compound 0.03 µM, first compound 0.0316 µM
[20] = second compound 0.03 µM, first compound 0.1 µM
[21] = second compound 0.03 µM, first compound 0.316 µM
[22] = second compound 0.03 µM, first compound 1 µM
[23] = second compound 0.03 µM, first compound 3.16 µM
[24] = second compound 0.03 µM, first compound 10 µM
[25] = second compound 0.0949 µM, first compound 0.0316 µM
[26] = second compound 0.0949 µM, first compound 0.1 µM
[27] = second compound 0.0949 µM, first compound 0.316 µM
[28] = second compound 0.0949 µM, first compound 1 µM
[29] = second compound 0.0949 µM, first compound 3.16 µM
[30] = second compound 0.0949 µM, first compound 10 µM
[31] = second compound 0.3 µM, first compound 0.0316 µM
[32] = second compound 0.3 µM, first compound 0.1 µM
[33] = second compound 0.3 µM, first compound 0.316 µM
[34] = second compound 0.3 µM, first compound 1 µM
[35] = second compound 0.3 µM, first compound 3.16 µM
[36] = second compound 0.3 µM, first compound 10 µM
[37] = second compound 0.000949 µM, first compound 0.00316 µM
[38] = second compound 0.000949 µM, first compound 0.01 µM
[39] = second compound 0.003 µM, first compound 0.00316 µM
[40] = second compound 0.003 µM, first compound 0.01 µM
[41] = second compound 0.00949 µM, first compound 0.00316 µM
[42] = second compound 0.00949 µM, first compound 0.01 µM
[43] = second compound 0.03 µM, first compound 0.00316 µM
[44] = second compound 0.03 µM, first compound 0.01 µM
[45] = second compound 0.0949 µM, first compound 0.00316 µM
[46] = second compound 0.0949 µM, first compound 0.01 µM
[47] = second compound 0.3 µM, first compound 0.00316 µM
[48] = second compound 0.3 µM, first compound 0.01 µM
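Note: spheroids exposed to agents for seven days before viability readout.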
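Throughout, for viability, T/C: 100% = DMSO vehicle control viability.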

CC(C)NCC(C(=O)N1CCN(c2ncnc3c2C(C)CC3O)CC1)c1ccc(Cl)cc1 (stereo not drawn) + CCn1c(-c2cccnc2C(C)OC)c2c3cc(ccc31)N1CCOC(CC(NC(=O)C(C(C)C)N(C)C(=O)C3(F)CCN(C(=O)C#CC(C)(C)N(C)C)CC3)C(=O)N3CCCC(N3)C(=O)OCC(C)(C)C2)C1
IC50 (second compound 0.000949 µM): 8750 nM | IC50 (second compound 0.003 µM): > 10000 nM | IC50 (second compound 0.00949 µM): > 10000 nM | IC50 (second compound 0.03 µM): 8380 nM | IC50 (second compound 0.0949 µM): 6150 nM | IC50 (second compound 0.3 µM): 3000 nM | viability, T/C [1]: 106% | viability, T/C [2]: 106% | viability, T/C [3]: 102% | viability, T/C [4]: 113% | viability, T/C [5]: 90.7% | viability, T/C [6]: 44.7% | viability, T/C [7]: 98.1% | viability, T/C [8]: 95.9% | viability, T/C [9]: 94% | viability, T/C [10]: 98.4% | viability, T/C [11]: 97.4% | viability, T/C [12]: 50.9% | viability, T/C [13]: 112% | viability, T/C [14]: 101% | viability, T/C [15]: 93.5% | viability, T/C [16]: 98.5% | viability, T/C [17]: 85.5% | viability, T/C [18]: 51.1% | viability, T/C [19]: 99.7% | viability, T/C [20]: 98.8% | viability, T/C [21]: 105% | viability, T/C [22]: 111% | viability, T/C [23]: 96.2% | viability, T/C [24]: 41.4% | viability, T/C [25]: 118% | viability, T/C [26]: 108% | viability, T/C [27]: 111% | viability, T/C [28]: 97.2% | viability, T/C [29]: 73.9% | viability, T/C [30]: 32.4% | viability, T/C [31]: 116% | viability, T/C [32]: 116% | viability, T/C [33]: 108% | viability, T/C [34]: 85.6% | viability, T/C [35]: 48.1% | viability, T/C [36]: 28.6%

CC(C)n1nc(-c2ccc3oc(N)nc3c2)c2c(N)ncnc21 + CCn1c(-c2cccnc2C(C)OC)c2c3cc(ccc31)N1CCOC(CC(NC(=O)C(C(C)C)N(C)C(=O)C3(F)CCN(C(=O)C#CC(C)(C)N(C)C)CC3)C(=O)N3CCCC(N3)C(=O)OCC(C)(C)C2)C1
IC50 (second compound 0.000949 µM): > 100 nM | IC50 (second compound 0.003 µM): > 100 nM | IC50 (second compound 0.00949 µM): > 100 nM | IC50 (second compound 0.03 µM): > 100 nM | IC50 (second compound 0.0949 µM): > 100 nM | IC50 (second compound 0.3 µM): 66.2 nM | viability, T/C (second compound 0.000949 µM, first compound 0.000316 µM): 95.6% | viability, T/C (second compound 0.000949 µM, first compound 0.001 µM): 97.1% | viability, T/C [37]: 108% | viability, T/C [38]: 96.9% | viability, T/C [1]: 112% | viability, T/C [2]: 72.2% | viability, T/C (second compound 0.003 µM, first compound 0.000316 µM): 102% | viability, T/C (second compound 0.003 µM, first compound 0.001 µM): 98.9% | viability, T/C [39]: 97.8% | viability, T/C [40]: 105% | viability, T/C [7]: 116% | viability, T/C [8]: 74.1% | viability, T/C (second compound 0.00949 µM, first compound 0.000316 µM): 100% | viability, T/C (second compound 0.00949 µM, first compound 0.001 µM): 90.7% | viability, T/C [41]: 101% | viability, T/C [42]: 111% | viability, T/C [13]: 111% | viability, T/C [14]: 66.6% | viability, T/C (second compound 0.03 µM, first compound 0.000316 µM): 95.5% | viability, T/C (second compound 0.03 µM, first compound 0.001 µM): 96.1% | viability, T/C [43]: 115% | viability, T/C [44]: 106% | viability, T/C [19]: 102% | viability, T/C [20]: 64.1% | viability, T/C (second compound 0.0949 µM, first compound 0.000316 µM): 109% | viability, T/C (second compound 0.0949 µM, first compound 0.001 µM): 109% | viability, T/C [45]: 113% | viability, T/C [46]: 110% | viability, T/C [25]: 108% | viability, T/C [26]: 55.8% | viability, T/C (second compound 0.3 µM, first compound 0.000316 µM): 106% | viability, T/C (second compound 0.3 µM, first compound 0.001 µM): 106% | viability, T/C [47]: 103% | viability, T/C [48]: 82.1% | viability, T/C [31]: 71.8% | viability, T/C [32]: 38.9%

CC(Nc1ccc2c(c1)OCCn1cc(N3C(=O)OCC3C(F)F)nc1-2)C(N)=O (stereo not drawn) + CCn1c(-c2cccnc2C(C)OC)c2c3cc(ccc31)N1CCOC(CC(NC(=O)C(C(C)C)N(C)C(=O)C3(F)CCN(C(=O)C#CC(C)(C)N(C)C)CC3)C(=O)N3CCCC(N3)C(=O)OCC(C)(C)C2)C1
IC50 (second compound 0.000949 µM): > 10000 nM | IC50 (second compound 0.003 µM): > 10000 nM | IC50 (second compound 0.00949 µM): > 10000 nM | IC50 (second compound 0.03 µM): > 10000 nM | IC50 (second compound 0.0949 µM): > 10000 nM | IC50 (second compound 0.3 µM): 9650 nM | viability, T/C [1]: 106% | viability, T/C [2]: 112% | viability, T/C [3]: 109% | viability, T/C [4]: 101% | viability, T/C [5]: 93.2% | viability, T/C [6]: 91.9% | viability, T/C [7]: 107% | viability, T/C [8]: 116% | viability, T/C [9]: 103% | viability, T/C [10]: 102% | viability, T/C [11]: 99.7% | viability, T/C [12]: 84.2% | viability, T/C [13]: 97.5% | viability, T/C [14]: 116% | viability, T/C [15]: 109% | viability, T/C [16]: 114% | viability, T/C [17]: 91.5% | viability, T/C [18]: 78.7% | viability, T/C [19]: 95.4% | viability, T/C [20]: 109% | viability, T/C [21]: 98.9% | viability, T/C [22]: 108% | viability, T/C [23]: 96.4% | viability, T/C [24]: 78.3% | viability, T/C [25]: 123% | viability, T/C [26]: 106% | viability, T/C [27]: 103% | viability, T/C [28]: 92% | viability, T/C [29]: 106% | viability, T/C [30]: 90% | viability, T/C [31]: 102% | viability, T/C [32]: 87.6% | viability, T/C [33]: 94.5% | viability, T/C [34]: 68.1% | viability, T/C [35]: 103% | viability, T/C [36]: 48.7%

O=C(c1ccc(F)c(F)c1Nc1ccc(I)cc1F)N1CC(O)([C@@H]2CCCCN2)C1 + CCn1c(-c2cccnc2C(C)OC)c2c3cc(ccc31)N1CCOC(CC(NC(=O)C(C(C)C)N(C)C(=O)C3(F)CCN(C(=O)C#CC(C)(C)N(C)C)CC3)C(=O)N3CCCC(N3)C(=O)OCC(C)(C)C2)C1
IC50 (second compound 0.000949 µM): 64.9 nM | IC50 (second compound 0.003 µM): 53.7 nM | IC50 (second compound 0.00949 µM): 57.8 nM | IC50 (second compound 0.03 µM): 53.1 nM | IC50 (second compound 0.0949 µM): 47.5 nM | IC50 (second compound 0.3 µM): 14.8 nM | viability, T/C [37]: 108% | viability, T/C [38]: 99.2% | viability, T/C [1]: 70.6% | viability, T/C [2]: 34.7% | viability, T/C [3]: 21.4% | viability, T/C [4]: 4.49% | viability, T/C [39]: 112% | viability, T/C [40]: 109% | viability, T/C [7]: 63.3% | viability, T/C [8]: 30.5% | viability, T/C [9]: 18% | viability, T/C [10]: 2.97% | viability, T/C [41]: 105% | viability, T/C [42]: 109% | viability, T/C [13]: 61.5% | viability, T/C [14]: 34.8% | viability, T/C [15]: 22.2% | viability, T/C [16]: 3.61% | viability, T/C [43]: 125% | viability, T/C [44]: 93.9% | viability, T/C [19]: 61.8% | viability, T/C [20]: 34.7% | viability, T/C [21]: 16.9% | viability, T/C [22]: 2.6% | viability, T/C [45]: 101% | viability, T/C [46]: 87.9% | viability, T/C [25]: 59.2% | viability, T/C [26]: 31.2% | viability, T/C [27]: 13.3% | viability, T/C [28]: 2.27% | viability, T/C [47]: 85.8% | viability, T/C [48]: 58.6% | viability, T/C [31]: 32.8% | viability, T/C [32]: 20.4% | viability, T/C [33]: 5.09% | viability, T/C [34]: 1.18%
